≈ marks a conversion by molar mass, not a printed value. Where “and” joins values, the source holds several entries; their conditions need not be identical. Equal entries are not always repeated. Entries after “also recorded” stand apart in the source; their conditions may differ.
Columns and labels:
Colon 38 = assay: Experiment 12 (first): Colon 38 s.c., saline with Tween-80, male; assay type: in vivo, Mouse B6 D2 F1 (BDF1)
Text: Host: Mouse B6 D2 F1 (BDF1)
Inoculum Site: Subcutaneous
(§1) Vehicle: Saline with Tween-80
Treatment schedule (relative to tumor inoculation day) days 2 and 9
Day of evaluation (relative to tumor inoculation day): 20
Parameter: Median tumor weight (MTW) estimated from tumor diameter
NCI minimal activity criteria: Percent T/C≤42
(§2) Percent T/C: Ratio of test (T) evaluation to control (C) evaluation expressed as a percentage

L-1210 Lymphoid leukemia = assay: Experiment 7: L-1210 i.p., 10^5 cells, acid diluted with saline, male; assay type: in vivo, Mouse CD2 F1 (CDF1)
Text: Host: Mouse CD2 F1 (CDF1)
Tumor: L-1210 Lymphoid leukemia
(§3) Inoculum Site: Intraperitoneal
(§4) Vehicle: Acid diluted with saline
(§5) Treatment schedule (relative to tumor inoculation day): daily on days 1-9
Day of evaluation (relative to tumor inoculation day): 30
(§6) Parameter: Median survival time (MST) in days
(§7) NCI minimal activity criteria: Percent T/C≥125
as §2

B16 Melanocarcinoma [1] = assay: Experiment 20: B16 i.p., acid diluted with saline, female; assay type: in vivo, Mouse B6 C3 F1
Text: (§8) Tumor: B16 Melanocarcinoma
as §3
(§9) Tissue: Homogenate (or brei), tumor
as §4, §5
(§10) Day of evaluation (relative to tumor inoculation day): 60
as §6, §7, §2

[2] = test system: P388 Lymphocytic leukemia; assay: NCI screen, P388 Lymphocytic leukemia, intraperitoneal (summary); assay type: in vivo, Mouse; settings: for maximum increased life span: days 2-9 as printed; for Antitumor activity in words: P388
Text: The activity of the compound has been evaluated by experiments carried out under the auspices of the Division of Cancer Treatment, National Cancer Institute, employing techniques considered to be reliable indicators of chemotherapeutic utility in the treatment of forms of cancer in human patients. The details of the methodology employed in the reported experiments may be determined with reference to established NCI screening methods.
In the experiments conducted by the NCI, evaluation of activity is made on the basis of appropriate parameters, such as median survival time (MST) or change in average tumor diameter (CATD)in ocular micrometer units (OMU).
The compound was found initially to be active in the P388 leukemia pre-screen, with T/C values (ratio of Test (T) evaluation to control (C) evaluation expressed as a percentage) of 177 and 176. Both values exceed the minimum T/C values for interest by the Decision Network Committe.

B16 Melanocarcinoma [3] = assay: Experiment 16: B16 i.p., saline with Tween-80, male; assay type: in vivo, Mouse B6 C3 F1
Text: as §8, §3, §9, §1, §5, §10, §6, §7, §2

physchem = assay type: physicochemical
Method: While the compound was generally tested as a suspension in Tween-80, in one L1210 experiment it was tested as a solution in 0.1 N HCL diluted with saline. The level of activity (ILS=117%) was maintained. The solubilities of the compound in 0.01 N and 0.1 HCl are approximately 3 and 30 mg/ml, respectively.
Formulation: 100 mg drug and 1 N HCl lyophilized yield the salt. The lyophilized cake dissolves in 2 ml sterile water to yield a 50 mg/ml red solution at pH 5.0-7.0.

Fischer 344 rats = assay: Single dose rat toxicity study; assay type: in vivo; settings: for toxicity summary, rats: single dose i.v. (X1)
Method: Preclinical toxicity studies of BIDA were completed in CD2F1 Mice, Fischer 344 rats and beagle dogs (4). The animals were injected IV with a single bolus or daily for five days.
A preclinical toxicology study of benzisoquinolinedione (NSC-308847) was done at Springborn Institute for Bioresearch, Inc. using CD2 F1 mice, Fischer 344 rats and beagle dogs. Animals were injected intravenously on a single dose (X1) or five daily dose (X5) regimen. Bulk drug was titrated with 0.5N HCl to form a salt solution of benzisoquinolinedione at a pH of 5.0-6.5. Sterile 0.9% saline was used for diluting the dosing solutions and was used for the vehicle control animals.
The following summarizes the major organ toxicities resulting from IV administration of benzisoquinolinedione to rats.

beagle dogs = settings: dog, in vivo
Text: To determine the source of the color, the following analyses were done: HPLC and TLC (for drug); routine urinalyses, orthotolidine reagent strip and sulfosalicylic acid/ammonium sulfate precipitation tests (for occult blood).

[4] = 15.0 mg/kg, listed as benzisoquinolinedione

CN(C)CCN1C(=O)c2cccc3cc(N)cc(c23)C1=O [Example 9, 1H-Benz[de]isoquinoline-1,3(2H)-dione, 5-amino-2-[2-(dimethylamino)ethyl]]
Median tumor weight (MTW) (Colon 38; 2.00 mg/kg i.p.): 685 | Percent T/C (Colon 38; 2.00 mg/kg i.p.): 72% | Median tumor weight (MTW) (Colon 38; 4.00 mg/kg i.p.): 775 | Percent T/C (Colon 38; 4.00 mg/kg i.p.): 81% | Median tumor weight (MTW) (Colon 38; 8.00 mg/kg i.p.): 861 | Percent T/C (Colon 38; 8.00 mg/kg i.p.): 90% | Median tumor weight (MTW) (Colon 38; 16.00 mg/kg i.p.): 733 | Percent T/C (Colon 38; 16.00 mg/kg i.p.): 77% | Median tumor weight (MTW) (Colon 38; 32.00 mg/kg i.p.): 270 | Percent T/C (Colon 38; 32.00 mg/kg i.p.): 28% | Median tumor weight (MTW) (Colon 38; 64.00 mg/kg i.p.): 252 | Percent T/C (Colon 38; 64.00 mg/kg i.p.): 26% | Median survival time (MST) (L-1210 Lymphoid leukemia; 1.00 mg/kg i.p.): 10.4 days | Percent T/C (L-1210 Lymphoid leukemia; 1.00 mg/kg i.p.): 99% | Median survival time (MST) (L-1210 Lymphoid leukemia; 2.00 mg/kg i.p.): 10.2 days | Percent T/C (L-1210 Lymphoid leukemia; 2.00 mg/kg i.p.): 97% | Median survival time (MST) (L-1210 Lymphoid leukemia; 4.00 mg/kg i.p.): 10.4 days | Percent T/C (L-1210 Lymphoid leukemia; 4.00 mg/kg i.p.): 99% | Median survival time (MST) (L-1210 Lymphoid leukemia; 8.00 mg/kg i.p.): 12.4 days | Percent T/C (L-1210 Lymphoid leukemia; 8.00 mg/kg i.p.): 118% | Median survival time (MST) (L-1210 Lymphoid leukemia; 16.00 mg/kg i.p.): 11.8 days | Percent T/C (L-1210 Lymphoid leukemia; 16.00 mg/kg i.p.): 112% | Median survival time (MST) (L-1210 Lymphoid leukemia; 32.00 mg/kg i.p.): 8.0 days | Median survival time (MST) (B16 Melanocarcinoma [1]; 0.00 mg/kg [sic] i.p.): 18.3 days | Percent T/C (B16 Melanocarcinoma [1]; 0.00 mg/kg [sic] i.p.): 97% | Median survival time (MST) (B16 Melanocarcinoma [1]; 2.00 mg/kg i.p.): 18.3 days | Percent T/C (B16 Melanocarcinoma [1]; 2.00 mg/kg i.p.): 97% | Median survival time (MST) (B16 Melanocarcinoma [1]; 4.00 mg/kg i.p.): 20.0 days | Percent T/C (B16 Melanocarcinoma [1]; 4.00 mg/kg i.p.): 106% | Median survival time (MST) (B16 Melanocarcinoma [1]; 8.00 mg/kg i.p.): 20.9 days | Percent T/C (B16 Melanocarcinoma [1]; 8.00 mg/kg i.p.): 111% | Median survival time (MST) (B16 Melanocarcinoma [1]; 16.00 mg/kg i.p.): 20.8 days | Percent T/C (B16 Melanocarcinoma [1]; 16.00 mg/kg i.p.): 110% | Median survival time (MST) (B16 Melanocarcinoma [1]; 32.00 mg/kg i.p.): 6.7 days | maximum increased life span ([2]; 8 mg/kg i.p.): 76% | maximum increased life span ([2]; 16 mg/kg i.p.): 77% | Antitumor activity in words ([2]; listed as BIDA): active | Antitumor activity in words ([2]; listed as the compound): at least a reproducible minimal activity | Table II evaluation ([2]; median survival time, 9 tests, full wrapped cell: Reproducible minimal activity): Reproducible minimal | T/C values in the P388 leukemia pre-screen ([2]; test/control as percentage, listed as the compound): 177% and 176% | Median survival time (MST) (B16 Melanocarcinoma [3]; 1.00 mg/kg i.p.): 17.6 days | Percent T/C (B16 Melanocarcinoma [3]; 1.00 mg/kg i.p.): 102% | Median survival time (MST) (B16 Melanocarcinoma [3]; 2.00 mg/kg i.p.): 17.3 days | Percent T/C (B16 Melanocarcinoma [3]; 2.00 mg/kg i.p.): 101% | Median survival time (MST) (B16 Melanocarcinoma [3]; 4.00 mg/kg i.p.): 19.3 days | Percent T/C (B16 Melanocarcinoma [3]; 4.00 mg/kg i.p.): 112% | Median survival time (MST) (B16 Melanocarcinoma [3]; 8.00 mg/kg i.p.): 20.3 days | Percent T/C (B16 Melanocarcinoma [3]; 8.00 mg/kg i.p.): 118% | Median survival time (MST) (B16 Melanocarcinoma [3]; 16.00 mg/kg i.p.): 35.0 days | Percent T/C (B16 Melanocarcinoma [3]; 16.00 mg/kg i.p.): 87% | Median survival time (MST) (B16 Melanocarcinoma [3]; 32.00 mg/kg i.p.): 8.3 days | solubility (physchem; 0.01 n hcl): ~3 mg/mL (≈ 10.6 mM) | solubility (physchem; 0.1 hcl): ~30 mg/mL (≈ 106 mM) | pH of reconstituted solution (physchem; lyophilized cake in 2 ml sterile water): 5.0-7.0 | Mortality / lethality (Fischer 344 rats; 15.0 mg/kg (1/2MELD10), single): 0/20 | Hematologic findings (Fischer 344 rats; [4]): Mild decreases in leukocytes were seen in males on day 4; also recorded: mild decreases in reticulocytes were seen in females | Microscopic hematologic lesions (Fischer 344 rats; [4]): mild diffuse thymic atrophy in three male rats on day 4; also recorded: No hematologic lesions were seen in either sex on day 29 | Microscopic hematologic lesions (Fischer 344 rats; 30.0 mg/kg, day 4 and day 29, listed as benzisoquinolinedione): moderate to marked diffuse bone marrow atrophy and mild to moderate diffuse thymic atrophy; also recorded: by day 29, no hematologic lesions were found | Reproductive findings (Fischer 344 rats; 30.0 mg/kg, day 29): All five long-term male rats showed decreased testicular weights | Hematologic findings (Fischer 344 rats; 30.0 mg/kg, listed as benzisoquinolinedione): Mild decreases in hemoglobin, hematocrit and red blood cells were seen in females on days 4 and 8, but not in males; also recorded: moderate decreases in reticulocytes and leukocytes on day 4 with moderate increases following on day 8 | mild diffuse testicular atrophy, incidence (Fischer 344 rats; 30.0 mg/kg, males, day 29): four of five | Mortality / lethality (Fischer 344 rats; 35.0 mg/kg (MELD50), single): 0/20 | Microscopic hematologic lesions (Fischer 344 rats; 35.0 mg/kg, day 4): marked to severe diffuse bone marrow atrophy and mild to moderate diffuse thymic atrophy | Reproductive findings (Fischer 344 rats; 35.0 mg/kg, day 29, listed as benzisoquinolinedione): All five male rats showed decreased testicular weights and mild diffuse testicular atrophy; also recorded: No reproductive lesions were seen in females | Hematologic findings (Fischer 344 rats; 35.0 mg/kg, listed as benzisoquinolinedione): Mild decreases in hemoglobin, hematocrit and red blood cells; also recorded: moderate decreases in reticulocytes in both sexes on day 4, followed by moderate increases on day 8; also recorded: Leukopenia (both lymphocytes and neutrophils); also recorded: Both sexes were comparable to controls on days 22 and 29 | Mortality / lethality (Fischer 344 rats; MELD10, single, 30.0 mg/kg in text, 20.00 in Table 4): 0/20 | toxicity summary, rats (Fischer 344 rats; listed as BIDA): reproductive system toxicity was seen at doses of MELD 10 and higher; also recorded: decreased testicular weights and mild diffuse testicular atrophy | toxicity summary, rats (Fischer 344 rats; listed as benzisoquinolinedione): toxic on both schedules (X1, X5) to the hematopoietic system and to the male reproductive system | blood in urine (beagle dogs): the presence of blood was negligible
